The test system of one series is healthy participants. An excerpt:
(§1) Methods The entry-into-human study (BP41732) was a double-blind, placebo-controlled, randomized, single-and multiple ascending dose study in healthy participants. In Part 1 (SAD) of Study BP41732, participants were randomized 3:1 to receive IV zosurabalpin or placebo in sequential single ascending dose cohorts. The mass balance study (BP43532) was a non-randomized, non-controlled, open-label, single IV dose study in healthy male participants. […] Disclosures Andreas Guenther, PhD, F. Hoffmann-La Roche Ltd: Employee Amanda Messer, BPharm, Roche Products Ltd: Employee Mylène Giraudon, PharmD, F. Hoffmann-La Roche Ltd: Employee Katie Patel, MSc, Roche Products Limited: Employer|Roche Products Limited: Stocks/Bonds Erik J. Deurloo, MSc, F. Hoffmann-La Roche Ltd: Salary|F. Hoffmann-La Roche Ltd: Stocks/Bonds Michael Lobritz, MD, PhD, Roche: full time employee|Roche: full time employee

For series [1] the following is noted: single IV dose; for dose proportionality of plasma exposures (Cmax and AUCinf): healthy participants.
Source text: as §1

Where [2] appears, read: healthy participants, single IV dose 10 mg to 2000 mg.
The mark [3] stands for this setting: healthy male participants, study BP43532, average.

Where two headings read alike, the source gives them in different places.

Consider `CN1C(=O)[C@H](CCCCN)NC(=O)[C@H](CCCN)NCc2cccnc2Sc2cccc(-c3ccc(C(=O)O)cc3)c2CNC(=O)[C@@H]1Cc1c[nH]c2ccccc12` [zosurabalpin, Zosurabalpin], for which the “treatment-related infusion-related reactions (IRRs), participants affected / participants dosed” value in the series on healthy participants (healthy male and female participants, single IV dose 10 mg to 2000 mg, studies BP41732 Part 1 (SAD) and BP43532, preliminary data) is recorded as 9/64. In addition, in the series on healthy participants (setting [2]), the “changes in laboratory values, ECGs or vital signs compared to placebo” value is on record as “did not show any clinically significant changes” and the “dose dependence of IRR occurrence” value is “appeared to be dose-dependent”. Also, in the series with healthy participants (healthy participants, single IV doses of 10 mg to 2000 mg), the “overall safety and tolerability” value is “safe and overall well tolerated”. For the same compound, in series [1] (setting [3]), the “total [14C]-radioactivity recovered in feces, % of the administered dose” value is given as 48.0 % of the administered dose and the “total [14C]-radioactivity recovered in urine, % of the administered dose” value is reported as 52.6 % of the administered dose. In series [1] (above 1000 mg up to 2000 mg), the “dose proportionality of plasma exposures (Cmax and AUCinf)” value was “more than dose-proportionally”. The “dose proportionality of plasma exposures (Cmax and AUCinf)” value in series [1] (up to 1000 mg) is recorded as “increased approximately dose-proportionally”.

Source of the values: PMC10678405, “2126. Safety, Tolerability, and Pharmacokinetics (PK) in Healthy Participants Following Single Dose Administration of Zosurabalpin, a Novel Pathogen-Specific Antibiotic for the Treatment of Serious Acinetobacter Infections” (Open Forum Infectious Diseases, 2023).
